The source of these data is the OligoGym collection.

These antisense oligonucleotides have a phosphorothioate backbone; sugars and methylation of C are not fully specified.
Note: test concentration or dose not given here.

One data set addresses SMAD1. The conditions noted are these: ASO.
In turn, ATTGATCTGGTCGCGCTG displayed a remaining target (mRNA or protein) (fraction of control) of 0.69.
The same measure, in the same setting: the value for CAGATGAAATAGGATTAT was 0.55; that for CAGCCTGCCATCCAGAGA was 0.46; that for CATAAGCAACCGCCTGAA was 0.57.
On the same count and under the same terms, the value for CCAGTCAGCACCGGGTTG was 0.8; that for CCCACACGATTGTTGAGC was 0.35.
The same measure, in the same setting: the value for CCGCCCGCCTGCTTTCTC was 0.12; that for CCTCAGCTGCCAATACCC was 0.47; that for CCTCCACTCCTCAGCTGC was 0.5.
CTGAAGATCGGGCCAGCG came in with a remaining target (mRNA or protein) (fraction of control) of 0.52.
In turn, GAGCCGCTCGGCCTCTCC gave a remaining target (mRNA or protein) (fraction of control) of 0.23.
The same measure, in the same setting: with GCAGCTCAAGGCCTTTTC the figure was 0.58.
The same measure, in the same setting: with GCTGGACTTGTAAAGGAA the figure was 0.57; with GTAGGTGCTGCTGCTGCT, 0.49.
In turn, GTCCAGAAGAGTAGAAAT showed a remaining target (mRNA or protein) (fraction of control) of 0.44.
For TAACATTGGAGAGCAGCC, the remaining target (mRNA or protein) (fraction of control) is 0.29.
In the case of TCCATGGTTCACAGACTG, the remaining target (mRNA or protein) (fraction of control) turned out to be 0.2.
Still for that read-out and setting: the value for TCCTTCTGCTTGGAACCA was 0.3; that for TCGCCCTGTTTCCACCCA was 0.1; that for TGAAACCATCCACCAACA was 0.3.
The same measure, in the same setting: with TGACTCATCCATCCTTCA the figure was 0.19.
Same read-out and setting: with TGCTACTGTCACTAAGGC the figure was 0.12.
Sequence TGCTAGTAACATCCTGGC showed a remaining target (mRNA or protein) (fraction of control) of 0.25.
In turn, TGGATATGGTGAAATAAA showed a remaining target (mRNA or protein) (fraction of control) of 0.83.
For the sequence TGTTTGTGTCCATCGGCT, the remaining target (mRNA or protein) (fraction of control) came out at 0.47.
Same read-out and setting: the value for TTCACCAAAGCATCAACA was 0.18.
Still for that read-out and setting: the value for TTGGTCACAGAGGTCAAG was 0.15; that for TTGTTTAAATTTCTGAAT was 0.5; that for TTTACAGAGAAGTCTCTT was not below 1.
TTTGTCCTAAGTTACGGA came in with a remaining target (mRNA or protein) (fraction of control) of 0.64.

A further data set concerns the target PLA2G4A. As to conditions: ASO.
Sequence AGTGGATGATGGTTGGGC displayed a remaining target (mRNA or protein) (fraction of control) not below 1.
As for ATAAGTCGGGAGCCATAA, the remaining target (mRNA or protein) (fraction of control) amounted to 0.98.
On the same count and under the same terms, the value for ATAGCACTCCTTCAGCCC was not below 1.
The same measure, in the same setting: with ATCAAGGGATACGGCAGG the figure was 0.51; with ATGTGAGCCCACTGTCCA, not below 1; with CACTCCTTCAGCCCTTCC, not below 1.
Still for that read-out and setting: with CACTGCCCCAGACACCCA the figure was not below 1; with CAGAAACGCCCAAAACTC, 0.43.
Regarding CATTTTAGCCCACTTTTC, the remaining target (mRNA or protein) (fraction of control) was not below 1.
For CCAAATAAGTCGGGAGCC, the remaining target (mRNA or protein) (fraction of control) turned out to be 0.09.
CCCCACCTGAACCCAATA: the remaining target (mRNA or protein) (fraction of control) is not below 1.
Still for that read-out and setting: with CCCCTTTGTCACTTTGGT the figure was 0.33; with CTCCTTCAGCCCTTCCCG, not below 1; with CTTGTTCATTTTAGCCCA, not below 1.
Same read-out and setting: with GAAAAGAGGTAAAGGGCA the figure was not below 1.
Same read-out and setting: the value for GAACCAGAAACGCCCAAA was not below 1.
Turning to GATGATGGTTGGGCAATC, the remaining target (mRNA or protein) (fraction of control) was not below 1.
Turning to GATGGTTGGGCAATCTTT, the remaining target (mRNA or protein) (fraction of control) was not below 1.
Still for that read-out and setting: with GCCCAAAACTCTGTTGAA the figure was 0; with GGTTGGGCAATCTTTCTC, not below 1; with GTGAACCAGAAACGCCCA, not below 1.
The same measure, in the same setting: the value for GTTCATTTTAGCCCACTT was not below 1.
The same measure, in the same setting: with TAAATGTGAGCCCACTGT the figure was not below 1; with TCGGGAGCCATAAAAGTA, not below 1.
With TGAGATTCAAGCCCAGCA, the remaining target (mRNA or protein) (fraction of control) worked out at 0.41.
Same read-out and setting: with TGAGCCCACTGTCCACTA the figure was 0.26; with TGCCCCAGACACCCATTA, 0.88; with TTGTGAACCAGAAACGCC, 0.08.
Still for that read-out and setting: the value for TTTAGCCCACTTTTCTGC was 0.07.
